Measured values published in patent US9040533B2, “Oxime-substituted-quinoxaline-type piperidine compounds as ORL-1 modulators” (priority 2012, dated 2015).

Tests used:
CYP2C9 = CYP2C9 (Homo sapiens, UniProt P11712); experiment: biochemical
CYP2D6 = CYP2D6 (Homo sapiens, UniProt P10635); experiment: biochemical
[1] = molecular target: human opioid receptor-like (ORL-1) (Homo sapiens, UniProt P41146); experiment: ORL-1 receptor [35S]GTPγS functional binding assay; type: biochemical
CYP1A2 = molecular target: T1, CYP1A2 (Homo sapiens, UniProt P05177); experiment: biochemical
T1 sequence (P05177 1-516): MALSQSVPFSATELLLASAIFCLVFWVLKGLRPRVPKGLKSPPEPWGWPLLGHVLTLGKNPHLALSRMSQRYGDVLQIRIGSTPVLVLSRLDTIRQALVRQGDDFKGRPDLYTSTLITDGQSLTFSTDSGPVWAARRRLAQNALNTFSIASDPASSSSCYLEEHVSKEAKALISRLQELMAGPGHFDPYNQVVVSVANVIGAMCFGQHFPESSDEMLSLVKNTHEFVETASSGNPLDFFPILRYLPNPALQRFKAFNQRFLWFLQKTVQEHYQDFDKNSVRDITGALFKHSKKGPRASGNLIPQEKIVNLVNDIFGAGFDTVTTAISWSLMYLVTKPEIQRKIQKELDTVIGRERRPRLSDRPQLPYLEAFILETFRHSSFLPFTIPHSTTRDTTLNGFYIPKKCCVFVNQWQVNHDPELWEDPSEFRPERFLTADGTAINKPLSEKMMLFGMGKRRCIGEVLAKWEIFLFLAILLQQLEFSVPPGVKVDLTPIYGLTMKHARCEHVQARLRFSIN

CYP3A4 = CYP3A4 (Homo sapiens, UniProt P08684); experiment: biochemical
Sequence of CYP3A4 (P08684 whole entry): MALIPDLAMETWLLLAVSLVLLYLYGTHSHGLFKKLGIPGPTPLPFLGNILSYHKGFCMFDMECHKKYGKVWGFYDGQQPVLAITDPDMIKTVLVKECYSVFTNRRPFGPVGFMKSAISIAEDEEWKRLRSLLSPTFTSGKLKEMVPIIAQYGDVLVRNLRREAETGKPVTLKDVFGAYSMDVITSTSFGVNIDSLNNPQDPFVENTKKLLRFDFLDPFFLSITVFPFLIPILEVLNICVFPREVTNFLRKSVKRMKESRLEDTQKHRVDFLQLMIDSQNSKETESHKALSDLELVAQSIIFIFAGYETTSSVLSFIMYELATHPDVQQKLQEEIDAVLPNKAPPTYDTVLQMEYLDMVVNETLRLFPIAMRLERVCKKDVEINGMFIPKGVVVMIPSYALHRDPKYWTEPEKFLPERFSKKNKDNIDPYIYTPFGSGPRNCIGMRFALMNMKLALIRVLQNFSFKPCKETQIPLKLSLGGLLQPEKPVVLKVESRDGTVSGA

CYP2C19 = CYP2C19 (Homo sapiens, UniProt P33261); experiment: biochemical
Sequence of CYP2C19 (P33261 whole entry): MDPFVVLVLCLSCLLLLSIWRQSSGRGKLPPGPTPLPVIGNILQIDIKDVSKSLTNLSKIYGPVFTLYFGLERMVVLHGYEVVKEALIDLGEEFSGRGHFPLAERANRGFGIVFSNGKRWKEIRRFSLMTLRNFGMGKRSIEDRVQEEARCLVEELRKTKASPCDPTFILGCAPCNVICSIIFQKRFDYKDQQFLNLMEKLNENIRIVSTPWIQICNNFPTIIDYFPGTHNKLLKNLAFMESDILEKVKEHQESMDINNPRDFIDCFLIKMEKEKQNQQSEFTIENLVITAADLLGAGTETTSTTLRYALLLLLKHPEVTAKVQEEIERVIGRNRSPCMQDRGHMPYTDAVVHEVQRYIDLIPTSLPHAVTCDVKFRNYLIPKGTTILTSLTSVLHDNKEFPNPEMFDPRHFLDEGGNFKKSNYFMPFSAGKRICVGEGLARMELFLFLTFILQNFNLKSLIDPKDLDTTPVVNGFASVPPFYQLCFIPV

human μ-opioid receptors = human μ-opioid receptors (Homo sapiens, UniProt P35372); experiment: In vitro mu-opioid receptor binding assay ([3H]-diprenorphine displacement); details: read-out: Mu opioid receptor Ki [Average ± Std Deviation]
Sequence of human μ-opioid receptors (P35372 whole entry): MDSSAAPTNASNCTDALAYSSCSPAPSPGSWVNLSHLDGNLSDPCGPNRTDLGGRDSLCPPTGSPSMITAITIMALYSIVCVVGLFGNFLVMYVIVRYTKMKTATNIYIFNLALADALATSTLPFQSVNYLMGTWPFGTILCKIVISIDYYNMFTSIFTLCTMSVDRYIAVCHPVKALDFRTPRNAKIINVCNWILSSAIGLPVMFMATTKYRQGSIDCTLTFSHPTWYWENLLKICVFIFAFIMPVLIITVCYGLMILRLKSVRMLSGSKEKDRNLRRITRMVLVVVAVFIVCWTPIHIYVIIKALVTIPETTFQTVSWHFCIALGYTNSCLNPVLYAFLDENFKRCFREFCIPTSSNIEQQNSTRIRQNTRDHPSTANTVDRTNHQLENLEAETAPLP

[2] = molecular target: human kappa opioid receptor (Homo sapiens, UniProt P41145); experiment: In vitro kappa-opioid receptor binding assay ([3H]-U69,593 displacement)
Sequence of human kappa opioid receptor (P41145 whole entry): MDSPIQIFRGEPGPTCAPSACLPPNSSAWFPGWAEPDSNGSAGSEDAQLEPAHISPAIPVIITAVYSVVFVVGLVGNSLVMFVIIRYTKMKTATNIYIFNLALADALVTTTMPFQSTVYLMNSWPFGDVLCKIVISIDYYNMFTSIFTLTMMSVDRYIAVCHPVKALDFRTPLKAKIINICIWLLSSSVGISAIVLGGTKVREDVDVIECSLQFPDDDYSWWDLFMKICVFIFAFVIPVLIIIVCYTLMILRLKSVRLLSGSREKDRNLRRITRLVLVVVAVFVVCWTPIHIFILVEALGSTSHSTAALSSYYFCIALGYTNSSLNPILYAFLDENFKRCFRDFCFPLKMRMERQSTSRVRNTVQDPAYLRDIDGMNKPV

delta opioid receptor = delta opioid receptor (Homo sapiens, UniProt P41143); experiment: In vitro delta-opioid receptor binding assay ([3H]-Naltrindole displacement)
Sequence of delta opioid receptor (P41143 whole entry): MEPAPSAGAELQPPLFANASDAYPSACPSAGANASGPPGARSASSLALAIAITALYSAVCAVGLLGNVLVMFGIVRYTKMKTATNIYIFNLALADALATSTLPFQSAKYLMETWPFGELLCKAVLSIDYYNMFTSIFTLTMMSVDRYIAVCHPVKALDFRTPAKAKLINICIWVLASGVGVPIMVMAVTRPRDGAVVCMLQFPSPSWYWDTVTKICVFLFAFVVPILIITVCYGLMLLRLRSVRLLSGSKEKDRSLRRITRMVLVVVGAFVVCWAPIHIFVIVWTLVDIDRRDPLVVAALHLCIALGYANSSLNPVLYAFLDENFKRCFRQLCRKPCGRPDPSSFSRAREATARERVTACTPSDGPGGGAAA

Sequence of human opioid receptor-like (ORL-1) (P41146 whole entry): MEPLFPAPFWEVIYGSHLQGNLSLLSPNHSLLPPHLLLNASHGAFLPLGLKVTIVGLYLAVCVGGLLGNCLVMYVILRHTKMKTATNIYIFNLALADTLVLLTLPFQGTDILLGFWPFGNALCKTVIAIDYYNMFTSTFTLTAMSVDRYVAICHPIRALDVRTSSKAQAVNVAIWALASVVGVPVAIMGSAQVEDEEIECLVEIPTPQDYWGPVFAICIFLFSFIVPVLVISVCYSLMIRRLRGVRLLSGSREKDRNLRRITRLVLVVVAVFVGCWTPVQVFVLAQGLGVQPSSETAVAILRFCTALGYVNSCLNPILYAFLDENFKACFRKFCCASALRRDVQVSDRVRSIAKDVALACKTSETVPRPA
Sequence of CYP2D6 (P10635 whole entry): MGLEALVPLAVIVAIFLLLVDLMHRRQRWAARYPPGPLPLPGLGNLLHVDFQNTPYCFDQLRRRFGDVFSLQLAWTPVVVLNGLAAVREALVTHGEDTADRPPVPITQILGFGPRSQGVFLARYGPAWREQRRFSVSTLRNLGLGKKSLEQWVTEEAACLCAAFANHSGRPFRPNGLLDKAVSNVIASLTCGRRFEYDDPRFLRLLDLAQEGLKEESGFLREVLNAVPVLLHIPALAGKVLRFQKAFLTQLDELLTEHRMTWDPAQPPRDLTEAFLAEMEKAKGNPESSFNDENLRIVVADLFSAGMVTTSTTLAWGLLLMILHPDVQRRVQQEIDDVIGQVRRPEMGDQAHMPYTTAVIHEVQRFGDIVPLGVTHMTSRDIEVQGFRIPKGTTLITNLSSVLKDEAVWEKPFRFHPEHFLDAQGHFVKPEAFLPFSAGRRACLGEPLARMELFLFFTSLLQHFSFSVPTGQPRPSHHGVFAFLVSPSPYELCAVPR
Sequence of CYP2C9 (P11712 whole entry): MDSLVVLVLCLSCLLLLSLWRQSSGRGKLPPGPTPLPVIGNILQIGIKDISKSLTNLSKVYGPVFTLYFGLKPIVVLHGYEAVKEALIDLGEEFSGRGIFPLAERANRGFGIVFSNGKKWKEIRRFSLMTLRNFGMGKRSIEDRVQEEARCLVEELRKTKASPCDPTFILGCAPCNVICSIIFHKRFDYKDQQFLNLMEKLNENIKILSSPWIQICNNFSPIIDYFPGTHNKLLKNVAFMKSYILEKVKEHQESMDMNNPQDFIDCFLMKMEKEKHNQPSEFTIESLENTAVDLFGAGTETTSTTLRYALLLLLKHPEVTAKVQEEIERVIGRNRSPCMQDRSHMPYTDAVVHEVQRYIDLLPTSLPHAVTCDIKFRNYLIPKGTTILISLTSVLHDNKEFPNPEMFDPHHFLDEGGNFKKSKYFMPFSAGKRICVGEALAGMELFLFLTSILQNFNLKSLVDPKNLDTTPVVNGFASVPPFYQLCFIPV

SMILES | IC50 (CYP2C9) [µM] | IC50 (CYP2D6) [µM] | EC50 [1] [µM] | IC50 (CYP1A2) [µM] | IC50 (CYP3A4) [µM] | IC50 (CYP2C19) [µM] | Ki (human μ-opioid receptors) [µM] | Ki [2] [µM] | Ki (delta opioid receptor) [µM]
CO/N=C(\CCC(=O)O)c1nc2ccccc2n([C@H]2C[C@H]3CCC[C@@H](C2)N3C2CCCCCCCC2)c1=O [Compound 10, 4-[4-((1R,3R,7S)-9-cyclononyl-9-aza-bicyclo[3.3.1]non-3-yl)-3-oxo-3,4-dihydro-quinoxalin-2-yl]-4-methoxyimino-butyric acid] | > 20 | > 20 | 0.104 ± 0.012 | > 20 | > 20 | > 20 | – | – | –
CON=C(CCC(=O)O)c1nc2ccccc2n([C@H]2C[C@H]3CC[C@@H](C2)N3C2CC3CCCC(C3)C2)c1=O (stereo partly drawn) [Compound 14, 4-(4-((1R,3R)-8-(bicyclo[3.3.1]nonan-3-yl)-8-azabicyclo[3.2.1]octan-3-yl)-3-oxo-3,4-dihydroquinoxalin-2-yl)-4-(methoxyimino)butanoic acid] | > 20 | > 20 | 0.15 ± 0.014 | > 20 | > 20 | > 20 | 2.3 ± 0.153 | 2.76 ± 0.245 | > 20
C/C(=N\OCC(=O)O)c1nc2ccccc2n([C@H]2C[C@H]3CCC[C@@H](C2)N3C2CCCCCCCCC2)c1=O [Compound 21] | > 20 | > 20 | 0.239 ± 0.0254 | > 20 | > 20 | > 20 | – | – | –
NC(=O)/C(=N\OCC(=O)O)c1nc2ccccc2n([C@H]2C[C@H]3CCC[C@@H](C2)N3C2CC3CCCC(C3)C2)c1=O (stereo partly shown) [Compound 40] | > 20 | > 20 | 0.113 ± 0.031 | > 20 | > 20 | > 20 | 2.71 ± 0.285 | 1.7 ± 0.278 | > 20
CON=C(CCC(=O)O)c1nc2ccccc2n([C@H]2C[C@H]3COC[C@@H](C2)N3C2CC3CCCCC(C3)C2)c1=O (stereo partly shown) [Compound 48] | > 20 | > 20 | 0.149 ± 0.029 | > 20 | > 20 | > 20 | 15.6 | > 20 | > 20
NC(=O)CO/N=C(\C(N)=O)c1nc2ccccc2n([C@H]2C[C@H]3CCC[C@@H](C2)N3C2CC3CCCCC(C3)C2)c1=O (stereo partly shown) [Compound 66] | > 20 | > 20 | – | > 20 | > 20 | > 20 | – | – | –
CC(C)ON=C(CCC(=O)O)c1nc2ccccc2n([C@H]2C[C@H]3CC[C@@H](C2)N3C2CC3CCCCC(C3)C2)c1=O (stereo partly shown) [Compound 67] | > 20 | > 20 | – | > 20 | > 20 | > 20 | – | – | –
